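Method: 48-hour compound exposure of cells in 96-well plates, five concentrations, linear interpolation of endpoints. GI50 = concentration required for 50% inhibition of growth. TGI denotes the concentration required for complete inhibition of growth.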

Among the data in PubChem BioAssay (NCI) are TGI and GI50 values, retold here.

Among the test systems are SF-295 CNS; SNB-75 CNS; CCRF-CEM leukemia; COLO 205 colon; UACC-257 melanoma; SK-MEL-2 melanoma; MALME-3M melanoma; MCF7 breast; DU-145 prostate; NCI/ADR-RES ovarian.
Holding throughout (test): inhibition of tumour cell growth, NCI panel, 48 h

`C#C[C@H](CCCC)OC(=O)N[C@H](C)c1ccccc1`: the TGI was more than 100 µM with SF-295 CNS; more than 100 µM in the test on SNB-75 CNS; more than 100 µM in the test with CCRF-CEM leukemia; 48.7 µM in the test on COLO 205 colon; 71 µM in the test on UACC-257 melanoma; 68.4 µM with SK-MEL-2 melanoma.
As for `Nc1ccc2ccc(NS(=O)(=O)N3CCCCC3)cc2c1`, the GI50 in the test on MALME-3M melanoma was 0.489 µM; in the test on SF-295 CNS, 0.228 µM; in the test on SNB-75 CNS it was 0.446 µM; with MCF7 breast, 0.295 µM; with DU-145 prostate, 1.45 µM; with CCRF-CEM leukemia, 0.46 µM. For the same compound, the GI50 was 0.369 µM with COLO 205 colon and 12.9 µM in the test on UACC-257 melanoma. For the same compound, the TGI in the test with MALME-3M melanoma is more than 100 µM; in the test on SF-295 CNS, 2.88 µM; in the test with SNB-75 CNS, more than 100 µM; with MCF7 breast it was more than 100 µM; in the test with DU-145 prostate, 22.2 µM; with CCRF-CEM leukemia it was more than 100 µM. Further, the values for the TGI in the test with COLO 205 colon, in the test with UACC-257 melanoma and in the test with SK-MEL-2 melanoma were 1.65 µM, more than 100 µM and more than 100 µM, respectively.
`BrC1=CC=C2NCCCCCCN=C3C=CC(Br)=CC=C3NCCCCCCN=C2C=C1`: the TGI in the test on MALME-3M melanoma, with SF-295 CNS, in the test with SNB-75 CNS, in the test with CCRF-CEM leukemia, in the test on UACC-257 melanoma and in the test with SK-MEL-2 melanoma was more than 25.5 µM throughout.
In the case of `Cc1cccc(C)c1NC(=O)CCC(=O)NC(N)=S`, the TGI with MALME-3M melanoma, with SF-295 CNS, in the test with SNB-75 CNS, in the test on CCRF-CEM leukemia, in the test with COLO 205 colon and with UACC-257 melanoma was more than 100 µM in each case.
`Cn1c2ccccc2c(=O)c2c([N+](=O)[O-])ccc(NCCN)c21`: the TGI with MALME-3M melanoma is 28.9 µM; with SF-295 CNS, 25 µM; in the test on SNB-75 CNS it was 26.8 µM; in the test with COLO 205 colon it was 19.3 µM; in the test with UACC-257 melanoma it was 26.9 µM; with SK-MEL-2 melanoma it was 36 µM.
With `CO[C@@]12C[C@H]3[C@@H]([C@@H](O)[C@@H](OC(=O)/C=C/c4ccccc4)[C@@]4(O)C(C)(C)CCC[C@]34C)[C@@H](C)C1=CC(=O)O2`, the GI50 is 3.84 µM in the test on SF-295 CNS; 0.382 µM in the test on SNB-75 CNS; 11 µM in the test on NCI/ADR-RES ovarian; 8.68 µM in the test on MCF7 breast; 13.4 µM in the test with DU-145 prostate; 5.42 µM with COLO 205 colon. The GI50 is 14.4 µM in the test on UACC-257 melanoma and 27 µM in the test with SK-MEL-2 melanoma. Further, the TGI in the test on SF-295 CNS is 44.1 µM; in the test with SNB-75 CNS, 2.46 µM; in the test on NCI/ADR-RES ovarian it was more than 100 µM; with MCF7 breast, more than 100 µM; with DU-145 prostate, 78.8 µM; in the test with COLO 205 colon, 54.2 µM. Besides, the TGI is 32.1 µM in the test on UACC-257 melanoma and more than 100 µM in the test on SK-MEL-2 melanoma.
Turning to `CCCCCC(O)(CCCCC)CCCCCCCCC1=C(O)c2[nH]c(=O)ccc2C(=O)C1=O`, the TGI in the test with MALME-3M melanoma came to 13.9 µM; in the test with SF-295 CNS it was 16.4 µM; in the test with SNB-75 CNS, 32.3 µM; with CCRF-CEM leukemia, 48.1 µM; with COLO 205 colon, 31.9 µM; in the test with UACC-257 melanoma, 14.3 µM. Moreover, the TGI with SK-MEL-2 melanoma turned out to be 13.9 µM.
Regarding `c1cc[c]([Sn]([S]c2cccc3cccnc23)([S]c2cccc3cccnc23)[c]2ccccc2)cc1`, the GI50 was 0.168 µM with MALME-3M melanoma; 0.353 µM with SF-295 CNS; 0.192 µM in the test with SNB-75 CNS; 0.0948 µM in the test with CCRF-CEM leukemia; 0.136 µM with COLO 205 colon; 0.205 µM in the test on UACC-257 melanoma. Moreover, the GI50 in the test with SK-MEL-2 melanoma was 0.16 µM. The TGI in the test with MALME-3M melanoma was found to be 0.547 µM; with SF-295 CNS, 1.4 µM; in the test on SNB-75 CNS, 1.16 µM; in the test with CCRF-CEM leukemia, 0.429 µM; in the test with COLO 205 colon, 0.298 µM; in the test on UACC-257 melanoma it was 0.559 µM. Also, the TGI in the test on SK-MEL-2 melanoma is 0.538 µM.
Consider `N#CC(C(=N/NC(N)=S)/C(=N/NC(N)=S)C(C#N)c1ccc(Cl)cc1)c1ccc(Cl)cc1` (configuration not stated), for which the TGI in the test with MALME-3M melanoma was more than 100 µM; in the test with SF-295 CNS, more than 100 µM; in the test on SNB-75 CNS, 92.1 µM; with CCRF-CEM leukemia, 97.9 µM; with COLO 205 colon it was more than 100 µM; in the test with UACC-257 melanoma, more than 100 µM. In the test on SK-MEL-2 melanoma, this compound came in with a TGI of more than 100 µM.
For `CC(=O)/C=C/C1=C(c2cccs2)c2ccccc2CC1`, the GI50 is 28.3 µM in the test with MALME-3M melanoma; 22.5 µM with SF-295 CNS; 25.6 µM with SNB-75 CNS; 27.3 µM in the test on NCI/ADR-RES ovarian; 42.8 µM with DU-145 prostate; 25.3 µM in the test with CCRF-CEM leukemia. Moreover, the GI50 in the test with COLO 205 colon was 23.1 µM; in the test with UACC-257 melanoma, 19.7 µM; in the test with SK-MEL-2 melanoma, 25.6 µM. Also, the TGI was 54.9 µM with MALME-3M melanoma; 54.5 µM with SF-295 CNS; 68.1 µM in the test on SNB-75 CNS; 81.7 µM in the test with NCI/ADR-RES ovarian; more than 100 µM in the test on DU-145 prostate; 54.2 µM with CCRF-CEM leukemia. Moreover, the TGI was determined as 49 µM with COLO 205 colon, 41.7 µM in the test on UACC-257 melanoma and 71.2 µM in the test with SK-MEL-2 melanoma.
With `CCCCCCCCCCCC(O)=C1C(=O)CC(O)CC1=O` (configuration not stated), the TGI in the test on SF-295 CNS, in the test with SNB-75 CNS, in the test with CCRF-CEM leukemia, in the test on COLO 205 colon, with UACC-257 melanoma and in the test on SK-MEL-2 melanoma was more than 100 µM throughout.
Take `OCC#Cc1ccccc1C#Cc1ccc(C#Cc2ccccc2C#CCO)s1`: the GI50 in the test on SF-295 CNS is 15.1 µM; in the test with SNB-75 CNS, 48.1 µM; in the test with NCI/ADR-RES ovarian, 21.1 µM; in the test on MCF7 breast it was 29.9 µM; with DU-145 prostate it was 14.9 µM; in the test with COLO 205 colon, 17.9 µM. In addition, the GI50 was 22.1 µM with UACC-257 melanoma and 14.6 µM in the test with SK-MEL-2 melanoma. Moreover, the TGI is 29.2 µM with SF-295 CNS; 78.7 µM with SNB-75 CNS; 36 µM in the test with NCI/ADR-RES ovarian; more than 100 µM with MCF7 breast; 28.1 µM with DU-145 prostate; 48.5 µM in the test on COLO 205 colon. Also, the TGI was 42.7 µM in the test with UACC-257 melanoma and 35.8 µM in the test on SK-MEL-2 melanoma.
As to `CC1(C)CC(=O)C(=[N+]=[N-])C(=O)C1`, the TGI in the test with MALME-3M melanoma, in the test on SF-295 CNS, in the test with SNB-75 CNS, with CCRF-CEM leukemia, with COLO 205 colon and with UACC-257 melanoma was more than 100 µM throughout. This compound displayed a TGI in the test with SK-MEL-2 melanoma of more than 100 µM.
